Experiment [1] addresses Eukaryotic translation initiation factor 2-alpha kinase 1 (Homo sapiens) (UniProt Q9BQI3). Description: Selectivity interaction (KinomeScan (DiscoverX)) EUB0000595a EIF2AK1. As to conditions: at 10 µM.
The target of experiment [2] is Leukocyte tyrosine kinase receptor (Homo sapiens, UniProt P29376). Description: Selectivity interaction (KinomeScan (DiscoverX)) EUB0000595a LTK. As to conditions: at 10 µM.
In experiment [3] the test system is Phosphatidylinositol 4,5-bisphosphate 3-kinase catalytic subunit alpha isoform (Homo sapiens), P42336 [M1043I]. The conditions noted are these: at 10 µM.
The target in experiment [4] is T1, Ribosomal protein S6 kinase delta-1 (Homo sapiens) (UniProt Q96S38).
T1 sequence (whole entry): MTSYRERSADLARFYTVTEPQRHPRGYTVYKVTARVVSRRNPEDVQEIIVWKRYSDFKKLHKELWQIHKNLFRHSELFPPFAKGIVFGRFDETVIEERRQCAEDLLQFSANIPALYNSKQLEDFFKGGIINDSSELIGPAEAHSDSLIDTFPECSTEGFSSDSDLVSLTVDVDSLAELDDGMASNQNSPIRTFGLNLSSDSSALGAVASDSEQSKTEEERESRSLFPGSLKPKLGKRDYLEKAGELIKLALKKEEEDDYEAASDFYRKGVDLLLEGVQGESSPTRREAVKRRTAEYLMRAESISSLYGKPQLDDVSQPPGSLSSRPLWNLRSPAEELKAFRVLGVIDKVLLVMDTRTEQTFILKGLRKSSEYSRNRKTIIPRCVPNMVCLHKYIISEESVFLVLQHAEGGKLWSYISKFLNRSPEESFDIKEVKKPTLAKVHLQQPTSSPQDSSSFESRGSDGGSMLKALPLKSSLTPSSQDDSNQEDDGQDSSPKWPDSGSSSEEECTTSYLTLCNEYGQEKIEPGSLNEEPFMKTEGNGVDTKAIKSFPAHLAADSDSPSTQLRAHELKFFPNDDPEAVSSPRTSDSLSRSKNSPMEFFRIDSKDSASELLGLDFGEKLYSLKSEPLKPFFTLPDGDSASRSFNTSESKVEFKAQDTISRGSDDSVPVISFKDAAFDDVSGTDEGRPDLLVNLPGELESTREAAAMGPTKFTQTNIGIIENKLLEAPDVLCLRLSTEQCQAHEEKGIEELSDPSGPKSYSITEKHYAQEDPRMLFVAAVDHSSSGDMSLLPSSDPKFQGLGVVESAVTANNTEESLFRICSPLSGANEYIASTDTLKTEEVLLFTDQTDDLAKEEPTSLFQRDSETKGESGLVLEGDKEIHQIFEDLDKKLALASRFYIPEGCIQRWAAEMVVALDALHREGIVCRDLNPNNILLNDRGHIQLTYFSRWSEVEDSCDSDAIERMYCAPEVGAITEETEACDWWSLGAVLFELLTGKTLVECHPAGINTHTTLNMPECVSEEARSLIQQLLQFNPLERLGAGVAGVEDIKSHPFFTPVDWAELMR
In words: Selectivity interaction (ActivX KiNativ screen (ex vivo kinase selectivity in human PBMCs)) EUB0001619a RPS6KC1. The class given is cell-based. The conditions noted are these: PBMC, at 1 µM.

Experiment [5] has as its target Dual specificity tyrosine-phosphorylation-regulated kinase 1A (Homo sapiens, UniProt Q13627). The conditions noted are these: at 10 µM.
Experiment [6] deals with High affinity nerve growth factor receptor (Homo sapiens, UniProt P04629). In words: Selectivity interaction (KinaseProfiler screening (Millipore)) EUB0000601a NTRK1. As to conditions: at 3 µM.
High affinity nerve growth factor receptor, sequence (P04629 33-796 limits assumed): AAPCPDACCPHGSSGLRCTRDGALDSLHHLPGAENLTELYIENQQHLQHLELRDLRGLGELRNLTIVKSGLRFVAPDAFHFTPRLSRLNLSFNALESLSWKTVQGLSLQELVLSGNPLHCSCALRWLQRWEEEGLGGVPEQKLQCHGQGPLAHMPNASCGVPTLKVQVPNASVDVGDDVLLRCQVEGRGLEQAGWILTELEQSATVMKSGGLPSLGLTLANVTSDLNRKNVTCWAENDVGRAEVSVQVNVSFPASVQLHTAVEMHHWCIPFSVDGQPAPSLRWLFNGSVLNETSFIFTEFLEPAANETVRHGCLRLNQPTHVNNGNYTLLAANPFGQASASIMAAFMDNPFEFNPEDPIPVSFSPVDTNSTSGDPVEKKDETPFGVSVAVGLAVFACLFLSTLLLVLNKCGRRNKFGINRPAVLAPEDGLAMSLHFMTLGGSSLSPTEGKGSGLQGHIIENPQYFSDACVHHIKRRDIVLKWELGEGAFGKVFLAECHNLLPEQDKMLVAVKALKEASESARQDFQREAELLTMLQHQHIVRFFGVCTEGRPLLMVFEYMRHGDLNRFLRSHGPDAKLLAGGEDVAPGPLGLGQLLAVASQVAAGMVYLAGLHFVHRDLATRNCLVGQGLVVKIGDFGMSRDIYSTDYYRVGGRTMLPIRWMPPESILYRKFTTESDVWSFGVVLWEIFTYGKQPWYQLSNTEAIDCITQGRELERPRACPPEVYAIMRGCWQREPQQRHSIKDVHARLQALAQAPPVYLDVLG
Experiment [7] has as its target Tyrosine-protein kinase ABL1 (Homo sapiens, UniProt P00519). Description: Selectivity interaction (ActivX KiNativ screen (kinase selectivity in THP-1 cell lysates)) EUB0000639a ABL1. Format: subcellular. As to conditions: lysate, at 0.2 µM.
The target of experiment [8] is Histone-lysine N-methyltransferase SUV39H2 (Homo sapiens) (UniProt Q9H5I1). As to conditions: at 1 µM.
The target of experiment [9] is T2, Dual specificity mitogen-activated protein kinase kinase 3 (Homo sapiens) (UniProt P46734).
T2 sequence (whole entry): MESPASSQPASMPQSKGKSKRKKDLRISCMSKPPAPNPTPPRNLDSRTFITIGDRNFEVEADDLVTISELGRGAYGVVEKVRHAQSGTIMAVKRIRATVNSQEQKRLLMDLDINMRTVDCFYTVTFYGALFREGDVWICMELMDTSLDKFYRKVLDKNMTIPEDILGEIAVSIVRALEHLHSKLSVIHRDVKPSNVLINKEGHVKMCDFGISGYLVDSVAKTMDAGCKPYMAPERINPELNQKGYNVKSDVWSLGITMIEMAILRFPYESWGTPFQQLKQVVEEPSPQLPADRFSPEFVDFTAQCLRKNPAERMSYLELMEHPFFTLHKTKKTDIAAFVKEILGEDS
In words: Selectivity interaction (KinomeScan (DiscoverX)) EUB0000045b MAP2K3.

In experiment [10] the test system is Epidermal growth factor receptor (Homo sapiens), P00533 [UNDEFINED MUTATION]. In words: Selectivity interaction (ProQinase) EUB0000171b EGFR. As to conditions: at 5 µM.
The nature of experiment [11]: Selectivity interaction (Ambit KINOMEscan and KiNATiv profiling in Jurkat cells) EUB0000090b CDK2H. The conditions noted are these: Selectivity number of off-targets 9; Selectivity number of targets 456; Source Knowledge https://www.nature.com/articles/nchembio.2166; at 1 µM.
In experiment [12] the test system is Mast/stem cell growth factor receptor Kit (Homo sapiens), P10721 [A829P]. Description: (§1) Selectivity interaction (KinomeScan (DiscoverX)) EUB0001079a KIT. As to conditions: at 1 µM.
The test system of experiment [13] is Mast/stem cell growth factor receptor Kit (Homo sapiens), P10721 [D816H]. The experiment is described as §1. As to conditions: at 1 µM.
Mast/stem cell growth factor receptor Kit (Homo sapiens), P10721 [D816H], sequence (P10721 whole entry D816H): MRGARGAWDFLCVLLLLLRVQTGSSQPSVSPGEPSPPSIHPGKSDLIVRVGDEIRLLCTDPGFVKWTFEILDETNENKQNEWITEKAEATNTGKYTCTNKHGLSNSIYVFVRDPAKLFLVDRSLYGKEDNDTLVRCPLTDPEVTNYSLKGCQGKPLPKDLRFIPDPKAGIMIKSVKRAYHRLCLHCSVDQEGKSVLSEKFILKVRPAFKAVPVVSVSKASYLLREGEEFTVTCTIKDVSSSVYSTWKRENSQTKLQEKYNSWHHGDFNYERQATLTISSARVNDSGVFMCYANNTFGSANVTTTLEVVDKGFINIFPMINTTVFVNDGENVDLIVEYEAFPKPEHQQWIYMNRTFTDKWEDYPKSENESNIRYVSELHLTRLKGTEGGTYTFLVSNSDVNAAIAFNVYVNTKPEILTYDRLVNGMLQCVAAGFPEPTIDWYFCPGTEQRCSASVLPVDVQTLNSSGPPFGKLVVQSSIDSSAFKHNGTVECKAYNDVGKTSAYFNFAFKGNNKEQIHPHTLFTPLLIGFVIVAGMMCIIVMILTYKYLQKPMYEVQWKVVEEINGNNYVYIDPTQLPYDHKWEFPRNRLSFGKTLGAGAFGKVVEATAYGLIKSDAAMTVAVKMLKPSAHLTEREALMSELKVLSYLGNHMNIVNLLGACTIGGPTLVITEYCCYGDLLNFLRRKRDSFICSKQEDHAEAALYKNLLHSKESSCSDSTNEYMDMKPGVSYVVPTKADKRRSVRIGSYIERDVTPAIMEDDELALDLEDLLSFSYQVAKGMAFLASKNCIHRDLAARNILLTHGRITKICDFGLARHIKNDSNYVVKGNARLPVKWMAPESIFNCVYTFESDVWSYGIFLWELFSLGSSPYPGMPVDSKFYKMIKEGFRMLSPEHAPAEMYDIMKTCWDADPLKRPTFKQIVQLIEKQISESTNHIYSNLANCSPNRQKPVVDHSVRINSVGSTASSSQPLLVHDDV
Experiment [14] deals with Mast/stem cell growth factor receptor Kit (Homo sapiens), P10721 [D816V]. The description is as §1. The conditions noted are these: at 1 µM.
The test system of experiment [15] is Mast/stem cell growth factor receptor Kit (Homo sapiens), P10721 [L576P]. Described as §1. The conditions noted are these: at 1 µM.
For experiment [16], the system named is Mast/stem cell growth factor receptor Kit (Homo sapiens), P10721 [V559D,T670I]. The experiment is described as §1. As to conditions: at 1 µM.
The test system of experiment [17] is Mast/stem cell growth factor receptor Kit (Homo sapiens), P10721 [V559D,V654A]. The description is as §1. As to conditions: at 1 µM.
The test system of experiment [18] is Mast/stem cell growth factor receptor Kit (Homo sapiens), P10721 [V559D]. Described as §1. The conditions noted are these: at 1 µM.
The target in experiment [19] is Mast/stem cell growth factor receptor Kit (Homo sapiens, UniProt P10721). Described as §1. The conditions noted are these: at 1 µM.
Mast/stem cell growth factor receptor Kit, sequence (P10721 whole entry): as the sequence (P10721 whole entry D816H) above, with H816D counted along it

Bounds are passed on as bounds.

Leukocyte tyrosine kinase receptor, sequence (P29376 whole entry, canonical isoform): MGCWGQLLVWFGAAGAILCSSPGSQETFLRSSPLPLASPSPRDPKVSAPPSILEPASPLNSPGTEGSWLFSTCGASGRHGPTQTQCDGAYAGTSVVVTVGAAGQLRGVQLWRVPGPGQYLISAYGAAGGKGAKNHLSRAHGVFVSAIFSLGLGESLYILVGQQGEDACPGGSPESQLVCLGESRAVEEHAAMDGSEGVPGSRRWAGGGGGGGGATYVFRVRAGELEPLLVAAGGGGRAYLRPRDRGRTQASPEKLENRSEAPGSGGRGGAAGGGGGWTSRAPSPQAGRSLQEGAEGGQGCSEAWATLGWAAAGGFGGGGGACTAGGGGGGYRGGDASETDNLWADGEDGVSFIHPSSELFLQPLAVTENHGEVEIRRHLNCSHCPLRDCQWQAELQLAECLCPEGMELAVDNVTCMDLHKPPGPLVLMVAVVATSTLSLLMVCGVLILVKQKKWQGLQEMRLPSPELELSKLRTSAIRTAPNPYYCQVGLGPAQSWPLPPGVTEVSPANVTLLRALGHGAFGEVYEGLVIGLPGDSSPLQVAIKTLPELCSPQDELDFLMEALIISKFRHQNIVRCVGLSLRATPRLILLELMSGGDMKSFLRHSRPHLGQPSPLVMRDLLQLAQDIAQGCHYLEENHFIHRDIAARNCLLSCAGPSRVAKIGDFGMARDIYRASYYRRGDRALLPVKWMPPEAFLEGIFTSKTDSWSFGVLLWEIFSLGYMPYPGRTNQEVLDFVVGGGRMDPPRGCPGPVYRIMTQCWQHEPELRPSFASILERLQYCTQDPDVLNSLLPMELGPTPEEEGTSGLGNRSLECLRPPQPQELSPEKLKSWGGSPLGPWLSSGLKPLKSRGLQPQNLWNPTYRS
Tyrosine-protein kinase ABL1, sequence (P00519 whole entry): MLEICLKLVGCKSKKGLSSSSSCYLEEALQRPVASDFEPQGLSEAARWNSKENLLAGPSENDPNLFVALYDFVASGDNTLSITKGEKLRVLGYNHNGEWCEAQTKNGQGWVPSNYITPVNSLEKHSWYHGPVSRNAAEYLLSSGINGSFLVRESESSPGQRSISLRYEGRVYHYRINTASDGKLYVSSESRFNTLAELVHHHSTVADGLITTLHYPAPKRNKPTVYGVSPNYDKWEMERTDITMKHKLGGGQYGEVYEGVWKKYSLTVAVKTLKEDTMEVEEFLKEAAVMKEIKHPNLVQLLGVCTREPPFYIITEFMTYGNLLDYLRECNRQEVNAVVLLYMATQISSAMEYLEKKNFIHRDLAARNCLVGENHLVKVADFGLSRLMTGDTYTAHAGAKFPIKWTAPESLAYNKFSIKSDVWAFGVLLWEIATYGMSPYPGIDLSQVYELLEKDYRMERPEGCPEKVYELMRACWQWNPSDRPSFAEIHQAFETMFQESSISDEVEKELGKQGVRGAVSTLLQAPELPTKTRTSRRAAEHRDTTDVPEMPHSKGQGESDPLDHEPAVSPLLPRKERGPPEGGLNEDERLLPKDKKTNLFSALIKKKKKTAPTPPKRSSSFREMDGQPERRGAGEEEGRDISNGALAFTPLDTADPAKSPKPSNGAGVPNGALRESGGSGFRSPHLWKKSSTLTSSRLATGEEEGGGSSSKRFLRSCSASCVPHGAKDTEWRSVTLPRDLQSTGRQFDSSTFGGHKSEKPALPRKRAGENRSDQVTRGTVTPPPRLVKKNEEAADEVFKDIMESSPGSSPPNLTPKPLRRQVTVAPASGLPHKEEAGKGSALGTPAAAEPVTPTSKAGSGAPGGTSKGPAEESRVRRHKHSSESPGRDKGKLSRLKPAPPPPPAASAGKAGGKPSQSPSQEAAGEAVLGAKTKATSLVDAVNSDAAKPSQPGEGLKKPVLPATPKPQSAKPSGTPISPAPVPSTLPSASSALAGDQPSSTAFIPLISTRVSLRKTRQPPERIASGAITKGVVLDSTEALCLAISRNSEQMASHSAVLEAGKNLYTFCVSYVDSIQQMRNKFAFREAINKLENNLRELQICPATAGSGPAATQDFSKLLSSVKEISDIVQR

Regarding `COCC(=O)NC/C=C/c1ccc2ncnc(Nc3ccc(Oc4ccc(C)nc4)c(C)c3)c2c1` [CP-724714], the % of control in experiment [1] was 100%; in experiment [2], 88%; in experiment [3] it was 100%.
In the case of `N#Cc1cccc(-c2c[nH]c3ncnc(N4CCOCC4)c23)c1`, the % of inhibition in [4] is -2%.
The compound `Cc1cc([C@@H](C)Nc2ccccc2C(=O)O)c2nc(N3CCOCC3)cc(=O)n2c1` [AZD-6482] displayed a % of control in [5] of 90%.
For `CCc1cc(Nc2nccc(-c3c(-c4ccc(OC)c(C(=O)Nc5c(F)cccc5F)c4)nc4ccccn34)n2)c(OC)cc1N1CCC(N2CCN(S(C)(=O)=O)CC2)CC1`, the % of inhibition in experiment [6] is 59%.
`CC[C@@H]1[C@H](F)C(=O)N[C@@H]1COc1nccc2cc(C(N)=O)c(OC)cc12` [ZIMLOVISERTIB]: in experiment [7], the % of inhibition is -42.6%.
Consider `CNCCN1CCC(c2cc(CN(C)C(=O)c3cccc(Oc4ccccc4)c3)ccn2)CC1`, for which the % activity in experiment [8] is above 90%.
With `C=CC(=O)Nc1cc(-n2c(=O)ccc3cnc4ccc(-c5ccc(NS(C)(=O)=O)cc5)cc4c32)ccc1C`, the figures for the % of control in experiment [9] (at 1 µM) and in experiment [9] (at 10 µM) were 100% and 69%, respectively.
In [10], `C=CC(=O)Nc1cccc(C(=O)Nc2ccc(Nc3cc(-c4[nH]c(SC)nc4C)ccn3)cc2)c1` displayed a % of control of 86%.
With `CN(C)C/C=C/C(=O)Nc1ccc(C(=O)N2CCCC(Nc3ncc(Cl)c(-c4c[nH]c5ccccc45)n3)C2)cc1` (stereo not given), the “% of control” value in experiment [11] stood at 100%.
As for `Nc1cnc(N2CCc3cc(S(=O)(=O)Nc4c(F)cc(Cl)cc4F)cc(N4CCCC4=O)c32)nc1` [TP-020n], the % of control was 100% in experiment [12]; 100% in [13]; 100% in experiment [14]; 83% in experiment [15]; 100% in experiment [16]; 100% in experiment [17]. For the same compound, the % of control in experiment [18] and in [19] was 100% each time.

Values taken from ChEMBL document CHEMBL5465560, “Selectivity Literature for EUbOPEN Chemogenomic Library” (2024).
